This assay has as its system BDF1 mice, colon carcinoma 38 sc, T/C %. Nature of the assay: NCI In Vivo Anticancer Drug Screen. Data for tumor model Colon Carcinoma 38 (subcutaneous) in B6D2F1 (BDF1) mice. The settings on record: endpoint: median tumor weight (est.), higher = larger tumour. The essentials:
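Mice with transplanted tumors are treated with compound or vehicle. Survival or tumor size is then measured in both groups. The ratio of treated to control gives the reported figure.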

Where [1] appears, read: dose: 50.0 mg/kg/injection, schedule: Q07DX002 (ip), vehicle: saline.
Where [2] appears, read: dose: 100.0 mg/kg/injection, schedule: Q07DX002 (ip), vehicle: saline.
The mark [3] stands for this setting: dose: 400.0 mg/kg/injection, schedule: Q07DX002 (ip), vehicle: saline.
The mark [4] stands for this setting: dose: 25.0 mg/kg/injection, schedule: Q07DX002 (ip), vehicle: saline.
Setting [5] is: dose: 6.25 mg/kg/injection, schedule: Q07DX002 (ip), vehicle: Klucel (hydroxypropylcellulose) (HPC).
Setting [6] is: dose: 12.5 mg/kg/injection, schedule: Q07DX002 (ip), vehicle: Klucel (hydroxypropylcellulose) (HPC).
Setting [7] is: dose: 25.0 mg/kg/injection, schedule: Q07DX002 (ip), vehicle: Klucel (hydroxypropylcellulose) (HPC).
Setting [8] is: dose: 50.0 mg/kg/injection, schedule: Q07DX002 (ip), vehicle: saline with Tween-80.
The mark [9] stands for this setting: dose: 100.0 mg/kg/injection, schedule: Q07DX002 (ip), vehicle: saline with Tween-80.
The mark [10] stands for this setting: dose: 200.0 mg/kg/injection, schedule: Q07DX002 (ip), vehicle: saline with Tween-80.
Setting [11] is: dose: 50.0 mg/kg/injection, schedule: Q07DX002 (ip), vehicle: Klucel (hydroxypropylcellulose) (HPC).
Where [12] appears, read: dose: 100.0 mg/kg/injection, schedule: Q07DX002 (ip), vehicle: Klucel (hydroxypropylcellulose) (HPC).
The mark [13] stands for this setting: dose: 200.0 mg/kg/injection, schedule: Q07DX002 (ip), vehicle: Klucel (hydroxypropylcellulose) (HPC).

Where “and” joins values, the source holds several entries; their conditions need not be identical. Equal entries are not always repeated. Records with an inconclusive call do not appear.

Turning to `O=C1CN(CN2CCOCC2)C(=O)CN1CN1CCOCC1`, the T/C was 115 % of control (dose: 12.5 mg/kg/injection, schedule: Q07DX002 (ip), vehicle: saline); 116 % of control and 107 % of control under setting [1]; 115 % of control under setting [2]; 50 % of control under setting [3].

Consider `OCCCN1CCCCC1CO` (centres undefined), for which the T/C is 91 % of control under setting [4]; 110 % of control under setting [1]; 108 % of control under setting [2]; 99 % of control (dose: 200.0 mg/kg/injection, schedule: Q07DX002 (ip), vehicle: saline); 98 % of control under setting [3].

Regarding `COC(=O)C[C@](O)(CCCC(C)(C)O)C(=O)O[C@@H]1C(OC)=C[C@]23CCCN2CCc2cc4c(cc2[C@H]13)OCO4`, the T/C runs as follows: (dose: 0.25 mg/kg/injection, schedule: Q07DX003 (ip), vehicle: saline) 93 % of control; (dose: 0.5 mg/kg/injection, schedule: Q07DX003 (ip), vehicle: saline) 95 % of control; (dose: 1.0 mg/kg/injection, schedule: Q07DX003 (ip), vehicle: saline) 64 % of control; (dose: 2.0 mg/kg/injection, schedule: Q07DX003 (ip), vehicle: saline) 53 % of control.

With `CO[C@@]12[C@@H]3N[C@@H]3CN1C1=C(C(=O)C(NCC3CCCO3)=C(C)C1=O)[C@@H]2COC(N)=O` (some centres undefined), the T/C by setting is: (dose: 3.0 mg/kg/injection, schedule: Q07DX002 (ip), vehicle: distilled water + Tween-80) 93 % of control; (dose: 6.0 mg/kg/injection, schedule: Q07DX002 (ip), vehicle: distilled water + Tween-80) 69 % of control; (dose: 12.0 mg/kg/injection, schedule: Q07DX002 (ip), vehicle: distilled water + Tween-80) 34 % of control; (dose: 24.0 mg/kg/injection, schedule: Q07DX002 (ip), vehicle: distilled water + Tween-80) 28 % of control.

As to `COc1cccc2c1C(=O)c1c(O)c3c(c(O)c1C2=O)C[C@@](O)(C(O)CO)C[C@@H]3OC1CC(N(Cc2ccccc2)Cc2ccccc2)C(O)C(C)O1` (some centres undefined), the T/C is, setting by setting: (dose: 12.5 mg/kg/injection, schedule: Q07DX002 (ip), vehicle: water) 75 % of control; (dose: 25.0 mg/kg/injection, schedule: Q07DX002 (ip), vehicle: water) 72 % of control; (dose: 50.0 mg/kg/injection, schedule: Q07DX002 (ip), vehicle: water) 36 % of control.

In the case of `CC[C@H]1CN2CCc3cc(OC)c(OC)cc3[C@@H]2C[C@@H]1C[C@H]1NCCc2cc(O)c(OC)cc21`, the T/C is 101 % of control (dose: 3.0 mg/kg/injection, schedule: Q07DX002 (ip), vehicle: suspension in saline); 110 % of control (dose: 6.0 mg/kg/injection, schedule: Q07DX002 (ip), vehicle: suspension in saline); 98 % of control (dose: 12.0 mg/kg/injection, schedule: Q07DX002 (ip), vehicle: suspension in saline); 89 % of control (dose: 24.0 mg/kg/injection, schedule: Q07DX002 (ip), vehicle: suspension in saline).

For the molecule `O=C(O)CCCc1ccc(N(CCCl)CCCl)cc1`, the T/C by setting is: (dose: 7.5 mg/kg/injection, schedule: Q07DX003 (ip), vehicle: saline with Tween-80) 103 % of control; (dose: 15.0 mg/kg/injection, schedule: Q07DX002 (ip), vehicle: Klucel (hydroxypropylcellulose) (HPC)) 62 % of control and 72 % of control and 82 % of control; (dose: 15.0 mg/kg/injection, schedule: Q07DX003 (ip), vehicle: saline with Tween-80) 37 % of control; (dose: 30.0 mg/kg/injection, schedule: Q07DX003 (ip), vehicle: saline with Tween-80) 62 % of control; (dose: 60.0 mg/kg/injection, schedule: Q07DX002 (ip), vehicle: Klucel (hydroxypropylcellulose) (HPC)) 69 % of control.

In the case of `[I][Hg][CH2]C1OCCOC1[CH2][Hg][I]` (centres undefined), the T/C (dose: 1.56 mg/kg/injection, schedule: Q07DX002 (ip), vehicle: Klucel (hydroxypropylcellulose) (HPC)) is 93 % of control; the T/C (dose: 3.12 mg/kg/injection, schedule: Q07DX002 (ip), vehicle: Klucel (hydroxypropylcellulose) (HPC)) was 101 % of control; the T/C under setting [5] is 92 % of control; the T/C under setting [6] is 99 % of control and 106 % of control; the T/C under setting [7] was 83 % of control and 91 % of control.

`O=c1[nH]cccc1O`: the T/C reads like this: (dose: 32.0 mg/kg/injection, schedule: Q07DX002 (ip), vehicle: saline with Tween-80) 101 % of control; (dose: 62.0 mg/kg/injection, schedule: Q07DX002 (ip), vehicle: saline with Tween-80) 177 % of control; (dose: 62.5 mg/kg/injection, schedule: Q07DX002 (ip), vehicle: saline with Tween-80) 100 % of control; (dose: 64.0 mg/kg/injection, schedule: Q07DX002 (ip), vehicle: saline with Tween-80) 76 % of control; (dose: 125.0 mg/kg/injection, schedule: Q07DX002 (ip), vehicle: saline with Tween-80) 87 % of control; (dose: 128.0 mg/kg/injection, schedule: Q07DX002 (ip), vehicle: saline with Tween-80) 94 % of control. Also, the T/C is, setting by setting: (dose: 250.0 mg/kg/injection, schedule: Q07DX002 (ip), vehicle: saline with Tween-80) 87 % of control; (dose: 256.0 mg/kg/injection, schedule: Q07DX002 (ip), vehicle: saline with Tween-80) 58 % of control; (dose: 512.0 mg/kg/injection, schedule: Q07DX002 (ip), vehicle: saline with Tween-80) 20 % of control.

`O=C1OC(=O)[C@H]2[C@@H]1[C@H]1C=C[C@@H]2OC1=O`: the T/C was 59 % of control (dose: 25.0 mg/kg/injection, schedule: Q07DX002 (ip), vehicle: suspension in saline); 65 % of control (dose: 50.0 mg/kg/injection, schedule: Q07DX002 (ip), vehicle: suspension in saline); 44 % of control (dose: 100.0 mg/kg/injection, schedule: Q07DX002 (ip), vehicle: suspension in saline); 62 % of control (dose: 200.0 mg/kg/injection, schedule: Q07DX002 (ip), vehicle: suspension in saline); 71 % of control (dose: 400.0 mg/kg/injection, schedule: Q07DX002 (ip), vehicle: suspension in saline); 97 % of control (dose: 800.0 mg/kg/injection, schedule: Q07DX002 (ip), vehicle: suspension in saline).

As to `COC1=C(OC)C(=O)C(Sc2ccc3ccccc3c2)=CC1=O`, the T/C is 86 % of control (dose: 6.25 mg/kg/injection, schedule: Q07DX002 (ip), vehicle: saline with Tween-80); 63 % of control (dose: 12.5 mg/kg/injection, schedule: Q07DX002 (ip), vehicle: saline with Tween-80); 90 % of control and 98 % of control under setting [8]; 87 % of control and 88 % of control under setting [9]; 74 % of control under setting [10].

In the case of `C=CCc1cn(C2CC(O)C(CO)O2)c(=O)[nH]c1=O` (centres undefined), the T/C is, setting by setting: under setting [4], 85 % of control; under setting [1], 78 % of control; under setting [2], 62 % of control and 65 % of control.

For `c1cc(OCC2CO2)ccc1OCC1CO1` (centres undefined), the T/C under setting [7] is 76 % of control; the T/C under setting [11] is 96 % of control; the T/C under setting [8] is 113 % of control; the T/C under setting [12] is 67 % of control; the T/C under setting [9] was 94 % of control; the T/C under setting [13] is 63 % of control. Further, the T/C by setting is: under setting [10], 82 % of control; (dose: 400.0 mg/kg/injection, schedule: Q07DX002 (ip), vehicle: Klucel (hydroxypropylcellulose) (HPC)) 77 % of control; (dose: 400.0 mg/kg/injection, schedule: Q07DX002 (ip), vehicle: saline with Tween-80) 102 % of control; (dose: 800.0 mg/kg/injection, schedule: Q07DX002 (ip), vehicle: saline with Tween-80) 77 % of control.

Take `O=c1cc(-c2ccccc2)[nH]c2c1CCCC2`: the T/C (dose: 900.0 mg/kg/injection, schedule: Q07DX002 (ip), vehicle: saline with Tween-80) was 101 % of control.

For `C[C@]12CC[C@@H]3c4ccc(O)cc4CC[C@H]3[C@@H]1CC[C@@H]2O`, the T/C was 83 % of control under setting [5]; 108 % of control and 249 % of control under setting [6]; 282 % of control and 99 % of control under setting [7]; 260 % of control under setting [11]; 282 % of control under setting [12]; 117 % of control and 271 % of control under setting [13].

The values are drawn from PubChem BioAssay AID212 (DTP/NCI, 2004).
